The source made the active and inactive calls. The rule behind the calls is not given here.
Test system: rodent lifetime carcinogenesis bioassay, tumor incidence TD50
Test: carcinogenic potency in animals, long-term in vivo studies, CPDB compilation (AID 1745844)

ClC=CCCl
TD50 (mouse, strain B6C3F1, females, by gavage, site: any site (literature study), lesion: several types, types named in the paper, dosed 104 weeks, study length 106 weeks): 34.9 mg/kg/day | TD50 (mouse, strain B6C3F1, females, by gavage, site: liver, lesion: hepatocellular adenoma + hepatocellular carcinoma + neoplastic nodule, dosed 104 weeks, study length 106 weeks): 89.3 mg/kg/day | TD50 (mouse, strain B6C3F1, females, by gavage, site: liver, lesion: hepatocellular adenoma + hepatocellular carcinoma, dosed 104 weeks, study length 106 weeks): 89.3 mg/kg/day | TD50 (mouse, strain B6C3F1, females, by gavage, site: liver, lesion: hepatocellular adenoma, dosed 104 weeks, study length 106 weeks): 215 mg/kg/day | TD50 (mouse, strain B6C3F1, females, by gavage, site: lung + stomach + urinary bladder, lesion: alveolar/bronchiolar adenoma + squamous-cell carcinoma + squamous-cell papilloma + transitional-cell carcinoma, dosed 104 weeks, study length 106 weeks): 36.3 mg/kg/day | TD50 (mouse, strain B6C3F1, females, by gavage, site: lung, lesion: alveolar/bronchiolar adenoma + alveolar/bronchiolar carcinoma, dosed 104 weeks, study length 106 weeks): 182 mg/kg/day | TD50 (mouse, strain B6C3F1, females, by gavage, site: lung, lesion: alveolar/bronchiolar adenoma, dosed 104 weeks, study length 106 weeks): 149 mg/kg/day | TD50 (mouse, strain B6C3F1, females, by gavage, site: stomach, lesion: squamous-cell carcinoma + squamous-cell papilloma, dosed 104 weeks, study length 106 weeks): 344 mg/kg/day | TD50 (mouse, strain B6C3F1, females, by gavage, site: urinary bladder, lesion: transitional-cell carcinoma, dosed 104 weeks, study length 106 weeks): 49.6 mg/kg/day | carcinogen call (mouse, strain B6C3F1, females, in feed, site: liver, lesion: hepatocellular adenoma, dosed 104 weeks, study length 104 weeks): negative (inactive) | carcinogen call (mouse, strain B6C3F1, females, in feed, site: liver, lesion: hepatocellular carcinoma, dosed 104 weeks, study length 104 weeks): negative (inactive) | carcinogen call (mouse, strain B6C3F1, females, in feed, site: lung, lesion: alveolar/bronchiolar adenoma, dosed 104 weeks, study length 104 weeks): negative (inactive) | carcinogen call (mouse, strain B6C3F1, females, in feed, site: lung, lesion: alveolar/bronchiolar carcinoma, dosed 104 weeks, study length 104 weeks): negative (inactive) | carcinogen call (mouse, strain B6C3F1, females, in feed, site: stomach, lesion: one or several types, types not named, dosed 52 weeks, study length 52 weeks): negative (inactive) | carcinogen call (mouse, strain B6C3F1, females, inhaled, site: any site (literature study), lesion: several types, types named in the paper, dosed 104 weeks, study length 104 weeks): negative (inactive) | TD50 (mouse, strain B6C3F1, females, inhaled, site: liver, lesion: several types, types named in the paper, dosed 104 weeks, study length 104 weeks): 1810 mg/kg/day (inactive) | carcinogen call (mouse, strain B6C3F1, females, inhaled, site: lung, lesion: alveolar/bronchiolar adenoma, dosed 104 weeks, study length 104 weeks): negative (inactive) | carcinogen call (mouse, strain B6C3F1, females, inhaled, site: lung, lesion: one or several types, types not named, dosed 52 weeks, study length 52 weeks): negative (inactive) | carcinogen call (mouse, strain B6C3F1, females, inhaled, site: mesenteric lymph node, lesion: lymphosarcoma, dosed 104 weeks, study length 104 weeks): negative (inactive) | TD50 (mouse, strain B6C3F1, females, inhaled, site: pituitary gland, lesion: adenoma, dosed 104 weeks, study length 104 weeks): 19 mg/kg/day (inactive) | TD50 (mouse, strain B6C3F1, males, by gavage, site: any site (literature study), lesion: several types, types named in the paper, dosed 104 weeks, study length 105 weeks): 309 mg/kg/day | TD50 (mouse, strain B6C3F1, males, by gavage, site: liver, lesion: hepatocellular adenoma + hepatocellular carcinoma + neoplastic nodule, dosed 104 weeks, study length 105 weeks): 1930 mg/kg/day | TD50 (mouse, strain B6C3F1, males, by gavage, site: lung, lesion: alveolar/bronchiolar adenoma + alveolar/bronchiolar carcinoma, dosed 104 weeks, study length 105 weeks): 127 mg/kg/day | TD50 (mouse, strain B6C3F1, males, in feed, site: liver, lesion: hepatocellular adenoma, dosed 104 weeks, study length 104 weeks): 78.2 mg/kg/day (inactive) | carcinogen call (mouse, strain B6C3F1, males, in feed, site: liver, lesion: hepatocellular carcinoma, dosed 104 weeks, study length 104 weeks): negative (inactive) | TD50 (mouse, strain B6C3F1, males, in feed, site: lung, lesion: alveolar/bronchiolar adenoma, dosed 104 weeks, study length 104 weeks): 368 mg/kg/day (inactive) | carcinogen call (mouse, strain B6C3F1, males, in feed, site: lung, lesion: alveolar/bronchiolar carcinoma, dosed 104 weeks, study length 104 weeks): negative (inactive) | carcinogen call (mouse, strain B6C3F1, males, in feed, site: stomach, lesion: one or several types, types not named, dosed 52 weeks, study length 52 weeks): negative (inactive) | TD50 (mouse, strain B6C3F1, males, inhaled, site: any site (literature study), lesion: several types, types named in the paper, dosed 104 weeks, study length 104 weeks): 229 mg/kg/day | TD50 (mouse, strain B6C3F1, males, inhaled, site: lacrimal gland, lesion: cystadenoma, dosed 104 weeks, study length 104 weeks): 82.2 mg/kg/day | TD50 (mouse, strain B6C3F1, males, inhaled, site: lung, lesion: alveolar/bronchiolar adenoma, dosed 104 weeks, study length 104 weeks): 118 mg/kg/day | carcinogen call (mouse, strain B6C3F1, males, inhaled, site: lung, lesion: one or several types, types not named, dosed 52 weeks, study length 52 weeks): negative (inactive) | TD50 (rat, strain Fischer 344, females, by gavage, site: liver, lesion: hepatocellular adenoma + hepatocellular carcinoma + neoplastic nodule, dosed 104 weeks, study length 106 weeks): 168 mg/kg/day | TD50 (rat, strain Fischer 344, females, by gavage, site: stomach, lesion: squamous-cell papilloma, dosed 104 weeks, study length 106 weeks): 176 mg/kg/day | TD50 (rat, strain Fischer 344, females, by gavage, site: thyroid gland, lesion: follicular-cell adenoma + follicular-cell carcinoma, dosed 104 weeks, study length 106 weeks): 137 mg/kg/day | TD50 (rat, strain Fischer 344, females, in feed, site: liver, lesion: hepatocellular adenoma, dosed 104 weeks, study length 104 weeks): 334 mg/kg/day | carcinogen call (rat, strain Fischer 344, females, in feed, site: stomach, lesion: one or several types, types not named, dosed 52 weeks, study length 52 weeks): negative (inactive) | TD50 (rat, strain Fischer 344, females, in feed, site: uterus, lesion: endometrial stromal polyp, dosed 104 weeks, study length 104 weeks): 61.4 mg/kg/day | carcinogen call (rat, strain Fischer 344, females, inhaled, site: any site (literature study), lesion: one or several types, types not named, dosed 52 weeks, study length 52 weeks): negative (inactive) | carcinogen call (rat, strain Fischer 344, females, inhaled, site: any site (literature study), lesion: several types, types named in the paper, dosed 105 weeks, study length 105 weeks): negative (inactive) | TD50 (rat, strain Fischer 344, females, inhaled, site: liver, lesion: hepatocellular adenoma, dosed 105 weeks, study length 105 weeks): 1590 mg/kg/day (inactive) | TD50 (rat, strain Fischer 344, males, by gavage, site: forestomach + liver + stomach, lesion: squamous-cell papilloma + neoplastic nodule + squamous-cell carcinoma, dosed 104 weeks, study length 106 weeks): 33.2 mg/kg/day | TD50 (rat, strain Fischer 344, males, by gavage, site: forestomach + stomach, lesion: squamous-cell papilloma + squamous-cell carcinoma, dosed 104 weeks, study length 106 weeks): 64.1 mg/kg/day | TD50 (rat, strain Fischer 344, males, by gavage, site: forestomach + stomach, lesion: squamous-cell papilloma, dosed 104 weeks, study length 106 weeks): 97 mg/kg/day | TD50 (rat, strain Fischer 344, males, by gavage, site: liver, lesion: hepatocellular adenoma + hepatocellular carcinoma + neoplastic nodule, dosed 104 weeks, study length 106 weeks): 68 mg/kg/day | TD50 (rat, strain Fischer 344, males, by gavage, site: liver, lesion: hepatocellular carcinoma + neoplastic nodule, dosed 104 weeks, study length 106 weeks): 68 mg/kg/day | TD50 (rat, strain Fischer 344, males, by gavage, site: liver, lesion: neoplastic nodule, dosed 104 weeks, study length 106 weeks): 76 mg/kg/day | TD50 (rat, strain Fischer 344, males, by gavage, site: stomach, lesion: squamous-cell carcinoma, dosed 104 weeks, study length 106 weeks): 213 mg/kg/day | TD50 (rat, strain Fischer 344, males, in feed, site: liver, lesion: hepatocellular adenoma, dosed 104 weeks, study length 104 weeks): 100 mg/kg/day | TD50 (rat, strain Fischer 344, males, in feed, site: liver, lesion: hepatocellular carcinoma, dosed 104 weeks, study length 104 weeks): 1360 mg/kg/day | carcinogen call (rat, strain Fischer 344, males, in feed, site: stomach, lesion: one or several types, types not named, dosed 52 weeks, study length 52 weeks): negative (inactive) | carcinogen call (rat, strain Fischer 344, males, inhaled, site: any site (literature study), lesion: one or several types, types not named, dosed 52 weeks, study length 52 weeks): negative (inactive) | carcinogen call (rat, strain Fischer 344, males, inhaled, site: any site (literature study), lesion: several types, types named in the paper, dosed 105 weeks, study length 105 weeks): negative (inactive) | carcinogen call (rat, strain Fischer 344, males, inhaled, site: liver, lesion: hepatocellular adenoma, dosed 105 weeks, study length 105 weeks): negative (inactive)

Source: PubChem BioAssay AID1745844 (Carcinogenic Potency Database (CPDB), 2022)
